# pEC50: −log10 of the molar value.
# Tests used:
# human mAChR M1 [1] = biological target: T1, human mAChR M1 (Homo sapiens, UniProt P11229); assay: mAChR M1 cell-based functional assay (calcium mobilization), agonist activity upon compound addition; settings: CHO-K1 cells expressing hM1; for pEC50: compound alone, before acetylcholine addition; for Emax: relative to the maximum for acetylcholine
# T1 construct: host or cells: CHO-K1 cells (ATCC), stably transfected using Lipofectamine2000
# T1 sequence (P11229 1-460): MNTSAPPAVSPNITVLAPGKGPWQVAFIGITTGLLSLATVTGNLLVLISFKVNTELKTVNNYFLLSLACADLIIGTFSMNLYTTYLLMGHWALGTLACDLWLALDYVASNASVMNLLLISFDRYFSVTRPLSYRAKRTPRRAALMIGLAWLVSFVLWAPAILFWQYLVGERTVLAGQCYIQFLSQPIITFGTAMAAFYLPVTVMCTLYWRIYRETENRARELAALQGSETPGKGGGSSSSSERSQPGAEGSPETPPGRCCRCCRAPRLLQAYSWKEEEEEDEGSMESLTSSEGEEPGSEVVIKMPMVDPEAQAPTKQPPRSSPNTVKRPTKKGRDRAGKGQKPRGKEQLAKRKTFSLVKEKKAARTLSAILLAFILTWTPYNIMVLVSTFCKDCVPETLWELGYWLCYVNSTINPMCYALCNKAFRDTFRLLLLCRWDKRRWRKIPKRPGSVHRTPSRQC
# Procedure, shortened: (§1)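 CHO-K1 cells stably expressing hM1, loaded with Fluo-4 AM; calcium flux read on FDSS 6000. Compound (11-point, 1:3 CRC) added at 4 s, EC20 acetylcholine at 144 s, EC80 at 230 s; agonism from response to compound alone, PAM from increase in EC20 response; Emax relative to acetylcholine maximum, four-parameter fit.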
# human mAChR M1 [2] = biological target: T1, human mAChR M1; assay: mAChR M1 cell-based functional assay (calcium mobilization), PAM activity: increase in the EC20 acetylcholine response; settings: CHO-K1 cells expressing hM1; potentiation of EC20 acetylcholine response
# Procedure, shortened: as §1
Structure (SMILES),pEC50 (human mAChR M1 [1]),Emax (human mAChR M1 [1]),pEC50 (human mAChR M1 [2]),Emax (human mAChR M1 [2])
"Cn1cc(-c2ccc(Cn3cc(C(=O)N[C@H]4CCOC[C@@H]4O)c4occc4c3=O)c(F)c2)cn1 [Compound D12, 5-(2-fluoro-4-(1-methyl-1H-pyrazol-4-yl)benzyl)-N-((3R,4S)-3-hydroxytetrahydro-2H-pyran-4-yl)-4-oxo-4,5-dihydrofuro[3,2-c]pyridine-7-carboxamide]",< 5.00,< 5%,5.40,67%
"Cn1cc2c(-c3cc(F)c(Cn4cc(C(=O)N[C@H]5CCC[C@@H]5O)c5occc5c4=O)c(F)c3)cccc2n1 [Compound D20, 5-(2,6-difluoro-4-(2-methyl-2H-indazol-4-yl)benzyl)-N-((1S,2S)-2-hydroxycyclopentyl)-4-oxo-4,5-dihydrofuran[3,2-c]pyridine-7-carboxamide]",< 5.00,< 5%,6.09,77%
"Cn1cc2c(-c3cc(F)c(Cn4cc(C(=O)N[C@H]5CCCC[C@@H]5O)c5ncncc5c4=O)c(F)c3)cccc2n1 [Compound A88, 6-(2,6-Difluoro-4-(2-methyl-2H-indazol-4-yl)benzyl)-N-((1S,2S)-2-hydroxycyclohexyl)-5-oxo-5,6-dihydropyrido[4,3-d]pyrimidine-8-carboxamide]",< 5.00,< 5%,≤ 5.00,40%
"Cn1cc2c(-c3cc(F)c(Cn4cc(C(=O)NCC(C)(C)O)c5nccnc5c4=O)c(F)c3)cccc2n1 [Compound A73, 6-(2,6-difluoro-4-(2-methyl-2H-indazol-4-yl)benzyl)-N-(2-hydroxy-2-methylpropyl)-5-oxo-5,6-dihydropyrido[3,4-b]pyrazine-8-carboxamide]",< 5.00,< 5%,5.39,67%
"Cn1cc2c(-c3cc(F)c(Cn4cc(C(=O)N[C@H]5CC[C@@H]5O)c5nccn5c4=O)c(F)c3)cccc2n1 [Compound B22, 6-(2,6-difluoro-4-(2-methyl-2H-indazol-4-yl)benzyl)-N-((1S,2S)-2-hydroxycyclobutyl)-5-oxo-5,6-dihydroimidazo[1,2-c]pyrimidine-8-carboxamide]",< 5.00,19%,5.90,59%
"Cn1cc2c(-c3cc(F)c(Cn4cc(C(=O)N[C@H]5CC[C@@H]5O)c5nccnc5c4=O)c(F)c3)cccc2n1 [Compound A69, 6-(2,6-difluoro-4-(2-methyl-2H-indazol-4-yl)benzyl)-N-((1S,2S)-2-hydroxycyclobutyl)-5-oxo-5,6-dihydropyrido[3,4-b]pyrazine-8-carboxamide]",< 5.00,< 5%,5.41,57%
"O=C(N[C@H]1CCC[C@@H]1O)c1cn(Cc2ccc(-n3cccn3)cc2)c(=O)c2cccnc12 [Compound A14, 6-(4-(1H-pyrazol-1-yl)benzyl)-N-((1S,2S)-2-hydroxycyclopentyl)-5-oxo-5,6-dihydro-1,6-naphthyridine-8-carboxamide]",< 5.00,< 5%,5.11,64%
"Cn1cc2c(-c3cc(F)c(Cn4cc(C(=O)N[C@@H]5CC[C@H]5O)c5occc5c4=O)c(F)c3)cccc2n1 (stereo in doubt) [Compound D21, 5-(2,6-difluoro-4-(2-methyl-2H-indazol-4-yl)benzyl)-N-((1R,2R)-2-hydroxycyclobutyl)-4-oxo-4,5-dihydrofuro[3,2-c]pyridine-7-carboxamide]",< 5.00,< 5%,5.66,75%
"Cc1cccc(-c2ccc(Cn3cc(C(=O)N[C@H]4CCOC[C@@H]4O)c4ncccc4c3=O)c(F)c2)c1 [Compound A29, 6-((3-fluoro-3′-methyl-[1,1′-biphenyl]-4-yl)methyl)-N-((3R,4S)-3-hydroxytetrahydro-2H-pyran-4-yl)-5-oxo-5,6-dihydro-1,6-naphthyridine-8-carboxamide]",< 5.00,< 5%,5.32,61%
"Cc1cc(-c2ccc(Cn3cc(C(=O)N[C@H]4CCOC[C@@H]4O)c4ncccc4c3=O)c(F)c2)ccn1 [Compound A26, 6-(2-fluoro-4-(2-methylpyridin-4-yl)benzyl)-N-((3R,4S)-3-hydroxytetrahydro-2H-pyran-4-yl)-5-oxo-5,6-dihydro-1,6-naphthyridine-8-carboxamide]",–,10%,6.31,75%
"Cc1cnn(C)c1-c1ccc(Cn2cc(C(=O)N[C@H]3CCCC[C@@H]3O)c3nccn3c2=O)c(F)c1 [Compound B35, 6-(4-(1,4-dimethyl-1H-pyrazol-5-yl)-2-fluorobenzyl)-N-((1S,2S)-2-hydroxycyclohexyl)-5-oxo-5,6-dihydroimidazo[1,2-c]pyrimidine-8-carboxamide]",< 5.00,< 5%,5.15,44%
"Cn1cc2c(-c3cc(F)c(Cn4cc(C(=O)N[C@H]5CCOC[C@@H]5O)c5ncn(C)c5c4=O)c(F)c3)cccc2n1 [Compound C4, 5-(2,6-difluoro-4-(2-methyl-2H-indazol-4-yl)benzyl)-N-((3R,4S)-3-hydroxytetrahydro-2H-pyran-4-yl)-3-methyl-4-oxo-4,5-dihydro-3H-imidazo[4,5-c]pyridine-7-carboxamide]",< 5.00,< 5%,6.51,58%
"Cn1cc2c(-c3cc(F)c(Cn4cc(C(=O)N[C@H]5CCCCC[C@@H]5O)c5ncncc5c4=O)c(F)c3)cccc2n1 [Compound A85, 6-(2,6-difluoro-4-(2-methyl-2H-indazol-4-yl)benzyl)-N-((1S,2S)-2-hydroxycycloheptyl)-5-oxo-5,6-dihydropyrido[4,3-d]pyrimidine-8-carboxamide]",< 5.00,< 5%,≤ 5.00,41%
"Cn1ccc(-c2ccc(Cn3cc(C(=O)N[C@H]4CCCC[C@@H]4O)c4sccc4c3=O)c(F)c2)n1 [Compound D27, 5-(2-fluoro-4-(1-methyl-1H-pyrazol-3-yl)benzyl)-N-((1S,2S)-2-hydroxycyclohexyl)-4-oxo-4,5-dihydrothieno[3,2-c]pyridine-7-carboxamide]",< 5.00,< 5%,< 5.00,37%
"Cn1ccc(-c2ccc(Cn3cc(C(=O)N[C@H]4CCCC[C@@H]4O)c4ncn(C)c4c3=O)c(F)c2)n1 [Compound C1, 5-(2-Fluoro-4-(1-methyl-1H-pyrazol-3-yl)benzyl)-N-((1S,2S)-2-hydroxycyclohexyl)-3-methyl-4-oxo-4,5-dihydro-3H-imidazo[4,5-c]pyridine-7-carboxamide]",–,8%,6.60,65%
"CC(C)[C@@H](CO)NC(=O)c1cn(Cc2c(F)cc(-c3cccc4nn(C)cc34)cc2F)c(=O)c2nccnc12 [Compound A75, (S)-6-(2,6-difluoro-4-(2-methyl-2H-indazol-4-yl)benzyl)-N-(1-hydroxy-3-methylbutan-2-yl)-5-oxo-5,6-dihydropyrido[3,4-b]pyrazine-8-carboxamide]",< 5.00,< 5%,5.45,56%
"Cn1cc2c(-c3cc(F)c(Cn4cc(C(=O)N[C@H]5CCC[C@@H]5O)c5nccnc5c4=O)c(F)c3)cccc2n1 [Compound A68, 6-(2,6-difluoro-4-(2-methyl-2H-indazol-4-yl)benzyl)-N-((1S,2S)-2-hydroxycyclopentyl)-5-oxo-5,6-dihydropyrido[3,4-b]pyrazine-8-carboxamide]",–,8%,5.92,74%
"Cn1ccc(-c2ccc(Cn3cc(C(=O)N[C@H]4CCCCC[C@@H]4O)c4nccnc4c3=O)c(F)c2)n1 [Compound A65, 6-(2-fluoro-4-(1-methyl-1H-pyrazol-3-yl)benzyl)-N-((1S,2S)-2-hydroxycycloheptyl)-5-oxo-5,6-dihydropyrido[3,4-b]pyrazine-8-carboxamide]",< 5.00,6%,5.28,63%
"Cn1cc2c(-c3cc(F)c(Cn4cc(C(=O)N[C@H]5CCCC[C@@H]5O)c5nccnc5c4=O)c(F)c3)cccc2n1 [Compound A52, 6-(2,6-Difluoro-4-(2-methyl-2H-indazol-4-yl)benzyl)-N-((1S,2S)-2-hydroxycyclohexyl)-5-oxo-5,6-dihydropyrido[3,4-b]pyrazine-8-carboxamide]",5.36,50%,6.40,64%
"Cc1cccc(-c2cc(F)c(Cn3cc(C(=O)N[C@H]4CCOC[C@@H]4O)c4ncccc4c3=O)c(F)c2)c1 [Compound A31, 6-((3,5-difluoro-3′-methyl-[1,1′-biphenyl]-4-yl)methyl)-N-((3R,4S)-3-hydroxytetrahydro-2H-pyran-4-yl)-5-oxo-5,6-dihydro-1,6-naphthyridine-8-carboxamide]",< 5.00,< 5%,5.59,70%
